{
  "source": "ChEMBL document CHEMBL3044636",
  "about": "“Effectiveness of five insecticides for the control of adults and young stages of Cacopsylla melanoneura (Förster) (Hemiptera: Psyllidae) in a semi-field trial” (2010)",
  "key": {"Cacopsylla melanoneura [1]": {"system": "Cacopsylla melanoneura", "experiment": "Insecticidal activity against adult of Cacopsylla melanoneura in apple plant assessed as reduction of progeny per female at 187.5 g/ha treated for 14 days measured after 7 days", "format": "functional, organism-based"}, "Cacopsylla melanoneura [2]": {"system": "Cacopsylla melanoneura", "experiment": "Insecticidal activity against adult of Cacopsylla melanoneura in apple plant assessed as overwintered female mortality at 187.5 g/ha treated for 14 days measured after 3 days relative to control", "format": "functional"}, "Cacopsylla melanoneura [3]": {"system": "Cacopsylla melanoneura", "experiment": "Insecticidal activity against adult of Cacopsylla melanoneura in apple plant assessed as overwintered female mortality at 187.5 g/ha treated for 14 days measured after 1 day relative to control", "format": "functional"}, "Cacopsylla melanoneura [4]": {"system": "Cacopsylla melanoneura", "experiment": "Insecticidal activity against adult of Cacopsylla melanoneura in apple plant assessed as reduction of progeny per female at 187.5 g/ha treated for 7 days measured after 7 days", "format": "functional, organism-based"}, "Cacopsylla melanoneura [5]": {"system": "Cacopsylla melanoneura", "experiment": "Insecticidal activity against adult of Cacopsylla melanoneura in apple plant assessed as overwintered female mortality at 187.5 g/ha treated for 7 days measured after 3 days relative to control", "format": "functional"}, "Cacopsylla melanoneura [6]": {"system": "Cacopsylla melanoneura", "experiment": "Insecticidal activity against adult of Cacopsylla melanoneura in apple plant assessed as overwintered female mortality at 187.5 g/ha treated for 7 days measured after 1 day relative to control", "format": "functional"}, "Cacopsylla melanoneura [7]": {"system": "Cacopsylla melanoneura", "experiment": "Insecticidal activity against adult of Cacopsylla melanoneura in apple plant assessed as reduction of progeny per female at 187.5 g/ha treated for 1 hr measured after 7 days", "format": "functional, organism-based"}, "Cacopsylla melanoneura [8]": {"system": "Cacopsylla melanoneura", "experiment": "Insecticidal activity against adult of Cacopsylla melanoneura in apple plant assessed as overwintered female mortality at 187.5 g/ha treated for 1 hr measured after 3 days relative to control", "format": "functional"}, "Cacopsylla melanoneura [9]": {"system": "Cacopsylla melanoneura", "experiment": "Insecticidal activity against adult of Cacopsylla melanoneura in apple plant assessed as overwintered female mortality at 187.5 g/ha treated for 1 hr measured after 1 day relative to control", "format": "functional"}, "Cacopsylla melanoneura [10]": {"system": "Cacopsylla melanoneura", "experiment": "Insecticidal activity against young stage of Cacopsylla melanoneura in apple plant assessed as mortality at 187.5 g/ha treated for 14 days measured after 7 days relative to control", "format": "functional"}, "Cacopsylla melanoneura [11]": {"system": "Cacopsylla melanoneura", "experiment": "Insecticidal activity against young stage of Cacopsylla melanoneura in apple plant assessed as mortality at 187.5 g/ha treated for 7 days measured after 7 days relative to control", "format": "functional"}, "Cacopsylla melanoneura [12]": {"system": "Cacopsylla melanoneura", "experiment": "Insecticidal activity against young stage of Cacopsylla melanoneura in apple plant assessed as mortality at 187.5 g/ha treated for 1 hr measured after 7 days relative to control", "format": "functional"}, "Cacopsylla melanoneura [13]": {"system": "Cacopsylla melanoneura", "experiment": "Insecticidal activity against adult of Cacopsylla melanoneura in apple plant assessed as overwintered female mortality at 300 g/ha treated for 1 hr measured after 1 day relative to control", "format": "functional"}, "Cacopsylla melanoneura [14]": {"system": "Cacopsylla melanoneura", "experiment": "Insecticidal activity against adult of Cacopsylla melanoneura in apple plant assessed as reduction of progeny per female at 300 g/ha treated for 14 days measured after 7 days", "format": "functional, organism-based"}, "Cacopsylla melanoneura [15]": {"system": "Cacopsylla melanoneura", "experiment": "Insecticidal activity against adult of Cacopsylla melanoneura in apple plant assessed as overwintered female mortality at 300 g/ha treated for 14 days measured after 3 days relative to control", "format": "functional"}, "Cacopsylla melanoneura [16]": {"system": "Cacopsylla melanoneura", "experiment": "Insecticidal activity against adult of Cacopsylla melanoneura in apple plant assessed as overwintered female mortality at 300 g/ha treated for 14 days measured after 1 day relative to control", "format": "functional"}, "Cacopsylla melanoneura [17]": {"system": "Cacopsylla melanoneura", "experiment": "Insecticidal activity against adult of Cacopsylla melanoneura in apple plant assessed as reduction of progeny per female at 300 g/ha treated for 7 days measured after 7 days", "format": "functional, organism-based"}, "Cacopsylla melanoneura [18]": {"system": "Cacopsylla melanoneura", "experiment": "Insecticidal activity against adult of Cacopsylla melanoneura in apple plant assessed as overwintered female mortality at 300 g/ha treated for 7 days measured after 3 days relative to control", "format": "functional"}, "Cacopsylla melanoneura [19]": {"system": "Cacopsylla melanoneura", "experiment": "Insecticidal activity against adult of Cacopsylla melanoneura in apple plant assessed as overwintered female mortality at 300 g/ha treated for 7 days measured after 1 day relative to control", "format": "functional"}, "Cacopsylla melanoneura [20]": {"system": "Cacopsylla melanoneura", "experiment": "Insecticidal activity against adult of Cacopsylla melanoneura in apple plant assessed as reduction of progeny per female at 300 g/ha treated for 1 hr measured after 7 days", "format": "functional, organism-based"}, "Cacopsylla melanoneura [21]": {"system": "Cacopsylla melanoneura", "experiment": "Insecticidal activity against adult of Cacopsylla melanoneura in apple plant assessed as overwintered female mortality at 300 g/ha treated for 1 hr measured after 3 days relative to control", "format": "functional"}, "Cacopsylla melanoneura [22]": {"system": "Cacopsylla melanoneura", "experiment": "Insecticidal activity against young stage of Cacopsylla melanoneura in apple plant assessed as mortality at 300 g/ha treated for 14 days measured after 7 days relative to control", "format": "functional"}, "Cacopsylla melanoneura [23]": {"system": "Cacopsylla melanoneura", "experiment": "Insecticidal activity against young stage of Cacopsylla melanoneura in apple plant assessed as mortality at 300 g/ha treated for 7 days measured after 7 days relative to control", "format": "functional"}, "Cacopsylla melanoneura [24]": {"system": "Cacopsylla melanoneura", "experiment": "Insecticidal activity against young stage of Cacopsylla melanoneura in apple plant assessed as mortality at 300 g/ha treated for 1 hr measured after 7 days relative to control", "format": "functional"}, "Cacopsylla melanoneura [25]": {"system": "Cacopsylla melanoneura", "experiment": "Insecticidal activity against young stage of Cacopsylla melanoneura in apple plant assessed as mortality at 16.6 g/ha treated for 14 days measured after 7 days relative to control", "format": "functional"}, "Cacopsylla melanoneura [26]": {"system": "Cacopsylla melanoneura", "experiment": "Insecticidal activity against young stage of Cacopsylla melanoneura in apple plant assessed as mortality at 16.6 g/ha treated for 7 days measured after 7 days relative to control", "format": "functional"}, "Cacopsylla melanoneura [27]": {"system": "Cacopsylla melanoneura", "experiment": "Insecticidal activity against young stage of Cacopsylla melanoneura in apple plant assessed as mortality at 16.6 g/ha treated for 1 hr measured after 7 days relative to control", "format": "functional"}, "Cacopsylla melanoneura [28]": {"system": "Cacopsylla melanoneura", "experiment": "Insecticidal activity against adult of Cacopsylla melanoneura in apple plant assessed as overwintered female mortality at 16.6 g/ha treated for 7 days measured after 1 day relative to control", "format": "functional"}, "Cacopsylla melanoneura [29]": {"system": "Cacopsylla melanoneura", "experiment": "Insecticidal activity against adult of Cacopsylla melanoneura in apple plant assessed as reduction of progeny per female at 16.6 g/ha treated for 1 hr measured after 7 days", "format": "functional, organism-based"}, "Cacopsylla melanoneura [30]": {"system": "Cacopsylla melanoneura", "experiment": "Insecticidal activity against adult of Cacopsylla melanoneura in apple plant assessed as overwintered female mortality at 16.6 g/ha treated for 1 hr measured after 3 days relative to control", "format": "functional"}, "Cacopsylla melanoneura [31]": {"system": "Cacopsylla melanoneura", "experiment": "Insecticidal activity against adult of Cacopsylla melanoneura in apple plant assessed as overwintered female mortality at 16.6 g/ha treated for 1 hr measured after 1 day relative to control", "format": "functional"}, "Cacopsylla melanoneura [32]": {"system": "Cacopsylla melanoneura", "experiment": "Insecticidal activity against adult of Cacopsylla melanoneura in apple plant assessed as reduction of progeny per female at 16.6 g/ha treated for 14 days measured after 7 days", "format": "functional, organism-based"}, "Cacopsylla melanoneura [33]": {"system": "Cacopsylla melanoneura", "experiment": "Insecticidal activity against adult of Cacopsylla melanoneura in apple plant assessed as overwintered female mortality at 16.6 g/ha treated for 14 days measured after 3 days relative to control", "format": "functional"}, "Cacopsylla melanoneura [34]": {"system": "Cacopsylla melanoneura", "experiment": "Insecticidal activity against adult of Cacopsylla melanoneura in apple plant assessed as overwintered female mortality at 16.6 g/ha treated for 14 days measured after 1 day relative to control", "format": "functional"}, "Cacopsylla melanoneura [35]": {"system": "Cacopsylla melanoneura", "experiment": "Insecticidal activity against adult of Cacopsylla melanoneura in apple plant assessed as reduction of progeny per female at 16.6 g/ha treated for 7 days measured after 7 days", "format": "functional, organism-based"}, "Cacopsylla melanoneura [36]": {"system": "Cacopsylla melanoneura", "experiment": "Insecticidal activity against adult of Cacopsylla melanoneura in apple plant assessed as overwintered female mortality at 16.6 g/ha treated for 7 days measured after 3 days relative to control", "format": "functional"}},
  "note": "Calls of active or inactive are those of the source. The rule behind the calls is not given here.",
  "data": [
    {"smiles": "CCOC(=O)NCCOc1ccc(Oc2ccccc2)cc1", "note": "[PHENOXYCARB]", "values": [
      {"measurement": "Activity", "setting": "Cacopsylla melanoneura [1]", "value": "Active"},
      {"measurement": "Activity", "setting": "Cacopsylla melanoneura [2]", "value": 53.3, "unit": "%"},
      {"measurement": "Activity", "setting": "Cacopsylla melanoneura [3]", "value": 23.3, "unit": "%"},
      {"measurement": "Activity", "setting": "Cacopsylla melanoneura [4]", "value": "Active"},
      {"measurement": "Activity", "setting": "Cacopsylla melanoneura [5]", "value": 60, "unit": "%"},
      {"measurement": "Activity", "setting": "Cacopsylla melanoneura [6]", "value": 40, "unit": "%"},
      {"measurement": "Activity", "setting": "Cacopsylla melanoneura [7]", "value": "Active"},
      {"measurement": "Activity", "setting": "Cacopsylla melanoneura [8]", "value": 16.7, "unit": "%"},
      {"measurement": "Activity", "setting": "Cacopsylla melanoneura [9]", "value": 3.3, "unit": "%"},
      {"measurement": "Activity", "setting": "Cacopsylla melanoneura [10]", "value": 100, "unit": "%"},
      {"measurement": "Activity", "setting": "Cacopsylla melanoneura [11]", "value": 91.7, "unit": "%"},
      {"measurement": "Activity", "setting": "Cacopsylla melanoneura [12]", "value": 93.3, "unit": "%"}
    ]},
    {"smiles": "O=C(NC(=O)c1c(F)cccc1F)Nc1ccc(Cl)cc1", "note": "[DIFLUBENZURON]", "values": [
      {"measurement": "Activity", "setting": "Cacopsylla melanoneura [13]", "value": 20, "unit": "%"},
      {"measurement": "Activity", "setting": "Cacopsylla melanoneura [14]", "value": "Active"},
      {"measurement": "Activity", "setting": "Cacopsylla melanoneura [15]", "value": 63.3, "unit": "%"},
      {"measurement": "Activity", "setting": "Cacopsylla melanoneura [16]", "value": 46.7, "unit": "%"},
      {"measurement": "Activity", "setting": "Cacopsylla melanoneura [17]", "value": "Active"},
      {"measurement": "Activity", "setting": "Cacopsylla melanoneura [18]", "value": 56.7, "unit": "%"},
      {"measurement": "Activity", "setting": "Cacopsylla melanoneura [19]", "value": 30, "unit": "%"},
      {"measurement": "Activity", "setting": "Cacopsylla melanoneura [20]", "value": "Active"},
      {"measurement": "Activity", "setting": "Cacopsylla melanoneura [21]", "value": 56.7, "unit": "%"},
      {"measurement": "Activity", "setting": "Cacopsylla melanoneura [22]", "value": 86.7, "unit": "%"},
      {"measurement": "Activity", "setting": "Cacopsylla melanoneura [23]", "value": 100, "unit": "%"},
      {"measurement": "Activity", "setting": "Cacopsylla melanoneura [24]", "value": 98.3, "unit": "%"}
    ]},
    {"smiles": "CC[C@H](C)[C@H]1O[C@]2(C=C[C@@H]1C)C[C@@H]1C[C@@H](C/C=C(\\C)[C@@H](O[C@H]3C[C@H](OC)[C@@H](O[C@H]4C[C@H](OC)[C@@H](O)[C@H](C)O4)[C@H](C)O3)[C@@H](C)/C=C/C=C3\\CO[C@@H]4[C@H](O)C(C)=C[C@@H](C(=O)O1)[C@]34O)O2.CO[C@H]1C[C@H](O[C@H]2[C@H](C)O[C@@H](O[C@@H]3/C(C)=C/C[C@@H]4C[C@@H](C[C@]5(C=C[C@H](C)[C@@H](C(C)C)O5)O4)OC(=O)[C@@H]4C=C(C)[C@@H](O)[C@H]5OC/C(=C\\C=C\\[C@@H]3C)[C@]54O)C[C@@H]2OC)O[C@@H](C)[C@@H]1O", "note": "[ABAMECTIN]", "values": [
      {"measurement": "Activity", "setting": "Cacopsylla melanoneura [25]", "value": 71.7, "unit": "%"},
      {"measurement": "Activity", "setting": "Cacopsylla melanoneura [26]", "value": 95, "unit": "%"},
      {"measurement": "Activity", "setting": "Cacopsylla melanoneura [27]", "value": 75, "unit": "%"},
      {"measurement": "Activity", "setting": "Cacopsylla melanoneura [28]", "value": 16.7, "unit": "%"},
      {"measurement": "Activity", "setting": "Cacopsylla melanoneura [29]", "value": "Active"},
      {"measurement": "Activity", "setting": "Cacopsylla melanoneura [30]", "value": 36.7, "unit": "%"},
      {"measurement": "Activity", "setting": "Cacopsylla melanoneura [31]", "value": 33.3, "unit": "%"},
      {"measurement": "Activity", "setting": "Cacopsylla melanoneura [32]", "value": "Active"},
      {"measurement": "Activity", "setting": "Cacopsylla melanoneura [33]", "value": 60, "unit": "%"},
      {"measurement": "Activity", "setting": "Cacopsylla melanoneura [34]", "value": 43.3, "unit": "%"},
      {"measurement": "Activity", "setting": "Cacopsylla melanoneura [35]", "value": "Active"},
      {"measurement": "Activity", "setting": "Cacopsylla melanoneura [36]", "value": 30, "unit": "%"}
    ]}
  ]
}
